# Experiments:
# [1] = test system: ERK phosphorylation in HCT-116 cell line; assay: ERK phosphorylation dose response to trametinib, HCT-116; format: cell-based; settings: HCT-116 (Ras-mutant)
# [2] = target: KSR2:MEK1 phosphorylation by B-RAF (Homo sapiens (Human), UniProt Q6VAB6); assay: RAF phosphorylation assay, KSR2:MEK1 substrate; format: biochemical; settings: 10 μM compound, 100 μM ATP, pMEK Ser218/Ser222
# Protocol: (§1) FIGS. 9A-9C show phosphorylation of MEK1, KSR2:MEK1, and KSR2^A690F:MEK1 by B-RAF over time in the presence of Compound 21. Relative pMEK was determined by quantification of band intensities from western blots using Image Lab Software 4.1.
# (§2) In particular, a variant of B-RAF was identified that could be expressed in high yield from E. Coli and which also retained near wild-type levels of kinase activity towards MEK1. For in vitro kinase assays, indicated concentrations of B-RAF and 1 μM KSR2-MEK1 or 1 μM MEK1 proteins were pre-incubated with 10 μM of indicated compounds for 15 minutes in buffer containing 25 mM Tris pH 7.5, 150 mM NaCl, 10 mM MgCl2, and 2% DMSO. Kinase reactions were initiated by the addition of 100 μM ATP and halted at the indicated times by the addition of 6×SDS loading dye. Samples were examined by western blotting as described for the ATP-biotin experiments and by probing overnight with a MEK1/2 Ser218-Ser222 phospho-specific antibody (Cell signaling). Membranes were visualized using enhanced chemiluminescence on a Biodoc (Biorad) for quantification purposes.
# [3] = test system: MEK1 phosphorylation by B-RAF; assay: RAF phosphorylation assay, MEK1 alone (KSR absent); format: biochemical; settings: 10 μM compound, free MEK1
# Protocol: as §1, §2
# MEK = assay: Inhibitory activity against purified MEK; format: biochemical
# A549 = assay: Cell viability, combination with trametinib, A549; format: cell-based; settings: A549 (Ras-mutant)
# Protocol: (§3) High BLISS scores indicate statistically significant synergy between Compound 21 and trametinib specifically within K-Ras mutant cells. Numbers listed within synergy matrices, representing % growth inhibition relative to DMSO controls, are mean of two replicates. Insets highlight dose responses of trametinib in the absence or presence of 1 μM Compound 21.
# (§4) The viability ratio represented the viability observed for treated (inhibitors) relative to controls (DMSO).
# KSR2:B-RAF^F667E dimers = KSR2:B-RAF^F667E dimers (Homo sapiens, UniProt Q6VAB6); assay: Biolayer inferometry of KSR2:B-RAF dimerization (Octet Red96); format: binding; settings: compound at 25 μM
# Protocol: B-RAF and B-RAF mutants (F667E+/−R509H) were immobilized on sensor-heads and KSR2:MEK1 or MEK1 assembly was monitored. Curves indicate dose ranges of KSR2:MEK1 or MEK1 from 625 nM to 10 μM. In all plots, association occurred from 0 to 660 seconds, and dissociation was monitored thereafter up to 1500 seconds. Compound 21 and trametinib were added in the presence of KSR2:MEK1 at a concentration of 25 μM each.
# To directly investigate the impact of Compound 21 on KSR2:B-RAF dimerization, bio-layer inferometry (BLI) was utilized to monitor real-time association and dissociation of KSR2:MEK1 or free MEK1 to a sensor tethered with immobilized B-RAF.
# To specifically monitor KSR2:B-RAF dimerization relative to other possible interactions, a mutation in B-RAF^F667E was identified that eliminates binding to free MEK but not KSR2-MEK1 complexes, as shown in FIGS. 7C-7D. […]
# Interactions between purified B-RAF and the KSR2:MEK1 complex were measured using biolayer inferometry on the Octet Red96 system (Forte Bio). […] Association and dissociation was monitored over 660 and 840 seconds, respectively. Data sets were normalized and analysed using global fit binding models (Fortebio software). […]
# HEK293 cells = assay: FBS-induced ERK activation in serum-starved HEK293 cells; format: cell-based; settings: 2 h pre-treatment, 5% FBS induction, compared with KSR1 siRNA
# Protocol: FIGS. 10A-10B show KSR1 knockdown and Compound 21 treatment similarly block FBS-induced ERK activation. In FIG. 10A, HEK293 cells were serum starved for 24 hours and simultaneously treated with two independent siRNAs against KSR1. siNTC was used as a scrambled control. After induction with 5% FBS, cells were harvested at […]. In FIG. 10B, HEK293 cells were similarly serum starved and pre-treated with Compound 21 for 2 h before induction. The cells were then induced with FBS as in FIG. 10A.
# ERK = assay: Inhibitory activity against purified ERK; format: biochemical
# HCT-116 = assay: Cell viability, combination with trametinib, HCT-116; format: cell-based
# Protocol: as §3
# FIGS. 13A-13D show data validating that Compound 21 is synergistic with trametinib in Ras-mutant cells. […] FIGS. 13C-13D show log of the combination index (CI) graphs of Compound 21 in combination with trametinib in HCT-116 vs. SK-MEL-239 cells as compared to the fractional effect (Fa).
# as §4
# Sequence of KSR2:MEK1 phosphorylation by B-RAF (Q6VAB6 634-950): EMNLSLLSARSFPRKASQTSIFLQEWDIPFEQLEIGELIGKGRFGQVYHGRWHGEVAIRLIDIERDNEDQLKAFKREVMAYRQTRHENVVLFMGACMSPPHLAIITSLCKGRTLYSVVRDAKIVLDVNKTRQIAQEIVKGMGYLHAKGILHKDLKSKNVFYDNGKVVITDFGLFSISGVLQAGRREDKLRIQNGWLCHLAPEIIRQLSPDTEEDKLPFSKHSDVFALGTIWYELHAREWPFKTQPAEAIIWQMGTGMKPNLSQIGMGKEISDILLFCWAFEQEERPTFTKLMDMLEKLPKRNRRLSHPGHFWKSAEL
# Sequence of KSR2:MEK1 phosphorylation by B-RAF (P29678 whole entry partner): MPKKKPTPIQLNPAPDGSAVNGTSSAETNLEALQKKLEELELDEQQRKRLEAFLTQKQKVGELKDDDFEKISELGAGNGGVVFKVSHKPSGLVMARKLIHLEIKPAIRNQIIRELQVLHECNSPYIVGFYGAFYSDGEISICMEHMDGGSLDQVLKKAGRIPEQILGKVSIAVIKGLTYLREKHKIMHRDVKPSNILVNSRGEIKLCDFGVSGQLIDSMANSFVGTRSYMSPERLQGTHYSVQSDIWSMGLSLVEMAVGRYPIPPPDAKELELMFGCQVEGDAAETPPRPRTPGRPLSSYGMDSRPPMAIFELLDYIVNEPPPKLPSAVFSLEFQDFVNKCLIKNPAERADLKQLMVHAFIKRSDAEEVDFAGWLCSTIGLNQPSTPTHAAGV
smiles,measurement,setting,value
"COc1cc2ncnc(Nc3ccc(Oc4ccccc4)cc3C)c2cc1OC [Compound 21, 6,7-Dimethoxy-N-(2-methyl-4-phenoxyphenyl)quinazolin-4-amine 2,2,2-trifluoroacetate]",enhancement in the IC90 of trametinib on ERK phosphorylation,[1],2 fold
same,KSR-stimulated MEK phosphorylation by RAF,[2],significantly reduced
same,"MEK phosphorylation by RAF, KSR absent",[3],essentially inactive
same,inhibitory activity against purified MEK,MEK,lacked detectable inhibitory activity
same,shift of cell viability dose response to trametinib,A549,shifted the cell viability dose response to trametinib
same,association of KSR2:MEK1 with immobilized B-RAF^F667E,KSR2:B-RAF^F667E dimers,did not associate
same,effect on FBS-induced ERK activation,HEK293 cells,mimic the effects of RNAi based knockdown of KSR1
same,inhibitory activity against purified ERK,ERK,lacked detectable inhibitory activity
same,shift of cell viability dose response to trametinib,HCT-116; HCT-116 (Ras-mutant),shifted the cell viability dose response to trametinib
same,combination index (CI) with trametinib,"HCT-116; HCT-116, negative log CI over broad Fa range",strong synergy
